# Test results taken from patent publication US10703727B2, “Method for preparing substituted 3-(2-anilino-1-cyclohexyl-1H-benzimidazol-5-yl)propanoic acid derivatives” (Bayer Pharma Aktiengesellschaft, priority 2015, dated 2020).
# Key:
# IDH1 R132H [1] = molecular target: T1, IDH1 R132H (Homo sapiens, UniProt O75874, R132H); test: Inhibition of IDH1 R132H in a biochemical assay (NADPH consumption, luminescence); details: 1.5 nM enzyme, 1 μM NADPH, 250 μM α-KG, 32° C., 30 minutes
# Experimental: NADPH consumption is determined by luminescence.
# Test compounds were assayed in a concentration range of 0.002 to 10 μM. The final DMSO concentration was 2.4%.
# The luminescence was determined using a luminescence reader (10 seconds measurement time, 1 second integration period, 30% sensitivity). The drop in luminescence is proportional to the activity of mIDH1. IC50 values were determined by interpolation from plots of the relative luminescence against the inhibitor concentration.
# IDH1 R132H [2] = molecular target: T1, IDH1 R132H; test: Cellular assay: 2-HG in medium of LN229 R132H cells overexpressing mutated IDH; assay type: cell-based; details: 24 hours
# Experimental: Concentrations of (2R)-2-hydroxyglutarate (2HG) were determined in a medium of a cell line having an overexpession of the mutated isocitrate dehydrogenase protein. mIDH catalyses the NADPH-dependent reduction of alpha-ketoglutarate to 2-HG. […] The cells were obtained using trypsin and placed in 96-well titre plates. The cells were incubated overnight at 37° C. in 5% CO2. On the next day, test compounds were added to the cells. The final concentration of DMSO was 0.1% and DMSO controls were used. The titre plates were then placed in an incubator for 24 hours.
# 2-HG was measured using the method published by Balss et al. (Acta Neuropathol (2012) 124: 883-891). HClO4 was added to each well and the titre plates were centrifuged. Aliquots were removed and incubated with hydroxyglutarate dehydrogenase (HGDH), diaphorase, NAD+ and resazurin. The conversion of resazurin to resorufin was determined by fluorescence spectroscopy at Ex 540 nm Em 600 nm. The increase in the fluorescence signal is proportional to formation of 2-HG. IC50 values were determined by interpolation from plots of the relative fluorescence against the inhibitor concentration.
# T1 sequence (O75874 whole entry R132H): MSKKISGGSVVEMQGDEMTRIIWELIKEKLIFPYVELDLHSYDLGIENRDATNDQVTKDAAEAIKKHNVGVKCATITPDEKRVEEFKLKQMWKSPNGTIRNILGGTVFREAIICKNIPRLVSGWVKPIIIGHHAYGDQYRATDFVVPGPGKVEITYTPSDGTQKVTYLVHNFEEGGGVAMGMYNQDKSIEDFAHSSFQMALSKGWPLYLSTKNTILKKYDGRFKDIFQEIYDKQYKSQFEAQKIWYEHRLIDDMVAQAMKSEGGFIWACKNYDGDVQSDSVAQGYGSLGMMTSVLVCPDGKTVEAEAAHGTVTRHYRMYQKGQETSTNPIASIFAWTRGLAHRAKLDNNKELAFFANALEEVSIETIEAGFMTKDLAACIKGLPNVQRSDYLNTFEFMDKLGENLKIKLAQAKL
Structure (SMILES),IC50 (IDH1 R132H [1]),IC50 (IDH1 R132H [2])
"CC(C)c1ccc(Nc2nc3cc(CCC(=O)O)ccc3n2C2CCCC(C)(C)C2)cc1 (racemic) [(±) 3-(1-[3,3-Dimethylcyclohexyl]-2-{[4-(propan-2-yl)phenyl]amino}-1H-benzimidazol-5-yl)propanoic acid]",50 nM,400 nM
"CC(C)Oc1ccc(Nc2nc3cc(CCC(=O)O)ccc3n2C2CCCC(C)(C)C2)cc1 (racemic) [(±) 3-(1-[3,3-Dimethylcyclohexyl]-2-{[4-(propan-2-yloxy)phenyl]amino}-1H-benzimidazol-5-yl)propanoic acid]",300 nM,850 nM
"CC1(C)CCCC(n2c(Nc3ccc(OC(F)(F)F)cc3)nc3cc(CCC(=O)O)ccc32)C1 (racemic) [(±) 3-(1-[3,3-dimethylcyclohexyl]-2-{[4-(trifluoromethoxy)phenyl]amino}-1H-benzimidazol-5-yl)propanoic acid]",60 nM,850 nM
"C[C@@H]1C[C@H](n2c(Nc3ccc(C(F)(F)F)cc3)nc3cc(CCC(=O)O)ccc32)CC(C)(C)C1 (racemic) [(±) 3-(2-{[4-(Trifluoromethyl)phenyl]amino}-1-[(cis)-3,3,5-trimethylcyclohexyl]-1H-benzimidazol-5-yl)propanoic acid]",40 nM,70 nM

# Results, then the compound that gave them:
IC50 (IDH1 R132H [1]),IC50 (IDH1 R132H [2]),Structure (SMILES)
20 nM,80 nM,"CC(C)c1ccc(Nc2nc3cc(CCC(=O)O)ccc3n2[C@H]2C[C@@H](C)CC(C)(C)C2)cc1 (racemic) [(±) 3-(2-{[4-(Propan-2-yl)phenyl]amino}-1-[(cis)-3,3,5-trimethylcyclohexyl]-1H-benzimidazol-5-yl)propanoic acid]"
60 nM,400 nM,"CC(C)Oc1ccc(Nc2nc3cc(CCC(=O)O)ccc3n2[C@H]2C[C@@H](C)CC(C)(C)C2)cc1 (racemic) [(±) 3-(2-{[4-(Propan-2-yloxy)phenyl]amino}-1-[(cis)-3,3,5-trimethylcyclohexyl]-1H-benzimidazol-5-yl)propanoic acid]"
170 nM,90 nM,"COC(=O)CCc1ccc2c(c1)nc(Nc1ccc(C(C)C)cc1)n2[C@H]1C[C@@H](C)CC(C)(C)C1 (racemic) [(±) Methyl 3-(2-{[4-(propan-2-yl)phenyl]amino}-1-[(cis)-3,3,5-trimethylcyclohexyl]-1H-benzimidazol-5-yl)propanoate]"
300 nM,300 nM,"COC(=O)CCc1ccc2c(c1)nc(Nc1ccc(OC(F)(F)F)cc1)n2[C@H]1C[C@@H](C)CC(C)(C)C1 (racemic) [(±) Methyl 3-(2-{[4-(trifluoromethoxy)phenyl]amino}-1-[(cis)-3,3,5-trimethylcyclohexyl]-1H-benzimidazol-5-yl)propanoate]"
